According to ChEMBL document CHEMBL1201862, “PubChem BioAssay data set” (2004):
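A five-concentration, 48-hour dose response in 96-well plates underlies each endpoint, interpolated linearly between surrounding concentrations. GI50: concentration for 50% inhibition of growth.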 Activity calls are given as the source filed them. Cut-off read from the data, not from the text of the source: active = GI50 up to about 1.1 µM and inactive = higher.

Assays:
Assay in all cases: inhibition of tumour cell growth, NCI panel, 48 h
[1] = system: MCF7
[2] = system: CAKI-1
[3] = system: OVCAR-3
[4] = system: SN12C
[5] = system: SK-MEL-2
[6] = system: Malme-3M
[7] = system: OVCAR-4
[8] = system: RPMI-8226
[9] = system: IGROV-1
[10] = system: BT-549
[11] = system: LOX IMVI
[12] = system: U-251
[13] = system: SF-539
[14] = system: Hs-578T
[15] = system: MDA-N
[16] = system: SW-620
[17] = system: K562
[18] = system: SNB-75
[19] = system: M14
[20] = system: EKVX

| SMILES | GI50 [1] | GI50 [2] | GI50 [3] | GI50 [4] | GI50 [5] | GI50 [6] | GI50 [7] | GI50 [8] | GI50 [9] | GI50 [10] | GI50 [11] | GI50 [12] | GI50 [13] | GI50 [14] | GI50 [15] | GI50 [16] | GI50 [17] | GI50 [18] | GI50 [19] | GI50 [20] |
| --- | --- | --- | --- | --- | --- | --- | --- | --- | --- | --- | --- | --- | --- | --- | --- | --- | --- | --- | --- | --- |
| CN(CCNCc1cn(C)c2c1ccc1ccccc12)CCNCc1cn(C)c2c1ccc1ccccc12 | 0.333 µM (active) | 1.73 µM (inactive) | 1.84 µM (inactive) | 1.56 µM (inactive) | 1.79 µM (inactive) | 1.87 µM (inactive) | 1.33 µM (inactive) | 2.84 µM (inactive) | 1.6 µM (inactive) | 1.57 µM (inactive) | 1.52 µM (inactive) | 0.9 µM (active) | 1.77 µM (inactive) | 1.64 µM (inactive) | 1.77 µM (inactive) | 1.35 µM (inactive) | 0.458 µM (active) | 1.21 µM (inactive) | 0.726 µM (active) | 1.72 µM (inactive) |
| Cc1ccc(S(=O)(=O)NN=C2C(C)CC(C(C)(C)C)CC2C)cc1 (centres undefined) | 21.1 µM (inactive) | 16.9 µM (inactive) | 16.6 µM (inactive) | 18.4 µM (inactive) | 16.2 µM (inactive) | 17.8 µM (inactive) | 14.9 µM (inactive) | 23.2 µM (inactive) | 38.9 µM (inactive) | 17.9 µM (inactive) | 17.9 µM (inactive) | 17.7 µM (inactive) | 95.1 µM (inactive) | 37.2 µM (inactive) | 19.3 µM (inactive) | 20 µM (inactive) | 21 µM (inactive) | 20.4 µM (inactive) | 13.5 µM (inactive) | – |
| O=C(O)C1=C(C(=O)O)N(c2ccncc2)C(c2ccco2)=CC1c1ccccc1[N+](=O)[O-] (centres undefined) | 2.65 µM (inactive) | 15.5 µM (inactive) | 8.17 µM (inactive) | 13.1 µM (inactive) | 17.8 µM (inactive) | 0.925 µM (active) | 13 µM (inactive) | 2.79 µM (inactive) | 1.85 µM (inactive) | 13.2 µM (inactive) | 2.01 µM (inactive) | 4.92 µM (inactive) | 2.11 µM (inactive) | 16.7 µM (inactive) | 5.56 µM (inactive) | 8.85 µM (inactive) | 2.85 µM (inactive) | 7.4 µM (inactive) | 7.01 µM (inactive) | 11.2 µM (inactive) |
| CCCCCC(CO)C(O)(C(F)(F)F)C(F)(F)F (centres undefined) | > 10 µM (inactive) | > 10 µM (inactive) | > 10 µM (inactive) | > 10 µM (inactive) | > 10 µM (inactive) | > 10 µM (inactive) | > 10 µM (inactive) | > 10 µM (inactive) | > 10 µM (inactive) | > 10 µM (inactive) | > 10 µM (inactive) | > 10 µM (inactive) | > 10 µM (inactive) | > 10 µM (inactive) | > 10 µM (inactive) | > 10 µM (inactive) | > 10 µM (inactive) | > 10 µM (inactive) | > 10 µM (inactive) | > 10 µM (inactive) |
| Cc1c(C)c(S(=O)(=O)N(CCCCCCN)OCCCN)c(C)c2c1OC(C)(C)CC2 | 9.59 µM (inactive) | 15.8 µM (inactive) | 2.44 µM (inactive) | 13 µM (inactive) | 2.42 µM (inactive) | 2.15 µM (inactive) | 2.49 µM (inactive) | 4.39 µM (inactive) | 2 µM (inactive) | 13.3 µM (inactive) | 2.4 µM (inactive) | 4.46 µM (inactive) | > 24.1 µM (inactive) | 3.72 µM (inactive) | 2.81 µM (inactive) | 7.45 µM (inactive) | 4.53 µM (inactive) | 2.99 µM (inactive) | 17.8 µM (inactive) | 6.65 µM (inactive) |
| COc1ccc2c(c1)CN1C(=N2)CSC1c1c(Cl)cccc1[N+](=O)[O-] (centres undefined) | 14.4 µM (inactive) | 23.1 µM (inactive) | – | 17.5 µM (inactive) | 17.5 µM (inactive) | 30.2 µM (inactive) | 31.5 µM (inactive) | 15.4 µM (inactive) | 31 µM (inactive) | 14.9 µM (inactive) | 18.5 µM (inactive) | 18.7 µM (inactive) | 15.1 µM (inactive) | 24.7 µM (inactive) | 18.5 µM (inactive) | 15.6 µM (inactive) | 13.6 µM (inactive) | 27.8 µM (inactive) | 18.3 µM (inactive) | 25.4 µM (inactive) |
| CCOC(=O)c1nc2ccc(C(F)(F)F)cc2nc1NCc1ccc(OC)cc1 | 43.2 µM (inactive) | > 100 µM (inactive) | 71.8 µM (inactive) | – | 97.9 µM (inactive) | 34.4 µM (inactive) | 63.7 µM (inactive) | 69.8 µM (inactive) | > 100 µM (inactive) | 60.4 µM (inactive) | 48.6 µM (inactive) | > 100 µM (inactive) | > 100 µM (inactive) | 99.5 µM (inactive) | > 100 µM (inactive) | > 100 µM (inactive) | 39.5 µM (inactive) | 85.9 µM (inactive) | > 100 µM (inactive) | > 100 µM (inactive) |
| CSc1c2c(C)n[nH]c2nn1-c1ccccc1 | 92 µM (inactive) | 21.1 µM (inactive) | 39.3 µM (inactive) | > 100 µM (inactive) | > 100 µM (inactive) | > 100 µM (inactive) | 53.7 µM (inactive) | > 100 µM (inactive) | – | 80 µM (inactive) | 24.1 µM (inactive) | 61.4 µM (inactive) | 40.4 µM (inactive) | > 100 µM (inactive) | > 100 µM (inactive) | 57.1 µM (inactive) | 47.5 µM (inactive) | > 100 µM (inactive) | 81.7 µM (inactive) | 83.4 µM (inactive) |
| O=C1C(Cl)C(c2cc3cc(Br)ccc3nc2Cl)N1c1ccc(Cl)cc1 (centres undefined) | 3.74 µM (inactive) | 4.43 µM (inactive) | 5.41 µM (inactive) | 4.45 µM (inactive) | 4.37 µM (inactive) | 4.56 µM (inactive) | 4.46 µM (inactive) | 5.21 µM (inactive) | 3.02 µM (inactive) | 4.4 µM (inactive) | 0.906 µM (active) | – | 4.33 µM (inactive) | 9.2 µM (inactive) | 5.53 µM (inactive) | 7.35 µM (inactive) | 5.81 µM (inactive) | 7.83 µM (inactive) | 5.85 µM (inactive) | 4.16 µM (inactive) |
| CN(C)N1C(=O)c2ccccc2NC1c1ccccc1 (centres undefined) | > 100 µM (inactive) | > 100 µM (inactive) | > 100 µM (inactive) | > 100 µM (inactive) | > 100 µM (inactive) | > 100 µM (inactive) | > 100 µM (inactive) | > 100 µM (inactive) | > 100 µM (inactive) | > 100 µM (inactive) | > 100 µM (inactive) | > 100 µM (inactive) | > 100 µM (inactive) | > 100 µM (inactive) | > 100 µM (inactive) | > 100 µM (inactive) | – | > 100 µM (inactive) | > 100 µM (inactive) | > 100 µM (inactive) |
